Measured values: patent US9963455B2, “Pyrazolo[1,5-a]pyrimidines as antiviral compounds” (Curovir AB, priority 2014, dated 2018)
Where two headings read alike, the source gives them in different places.

Legend:
Assay type in all cases: cell-based
[1] = test system: coxsackie B virus strain 4; assay: CPE inhibition in mammalian cell culture, Cox-B4; parameters: inhibition: dose or concentration left out as unconfirmed; conditions: read-out: antiviral effect, B4
[2] = test system: coxsackie B virus strain 2; assay: CPE inhibition in mammalian cell culture, Cox-B2; parameters: inhibition: dose or concentration left out as unconfirmed; conditions: read-out: antiviral effect, B2
[3] = test system: coxsackie B virus strain 1; assay: CPE inhibition in mammalian cell culture, Cox-B1; parameters: inhibition: dose or concentration left out as unconfirmed; conditions: for inhibition at 5000 µM / inhibition at 10000 µM / inhibition / inhibition at 1000 µM: read-out: antiviral effect, B1
[4] = test system: coxsackie B virus strain 5; assay: CPE inhibition in mammalian cell culture, Cox-B5; parameters: inhibition: dose or concentration left out as unconfirmed; conditions: read-out: antiviral effect, B5
[5] = test system: Enterovirus strain 6; assay: microbe, parasite or virus in culture; parameters: inhibition: dose or concentration left out as unconfirmed; conditions: for inhibition: read-out: antiviral effect, EV6
[6] = test system: Enterovirus strain 30; assay: CPE inhibition in mammalian cell culture, EV30; conditions: for inhibition at 5 µM: Conc. 5 µM; for inhibition at 5 µM / inhibition at 10 µM / inhibition at 100 µM / inhibition at 1 µM: read-out: antiviral effect, EV30; for inhibition at 10 µM: Conc. 10 µM; for inhibition at 100 µM: Conc. 0.1 mM; for inhibition at 1 µM: Conc. 1 µM
[7] = test system: polio virus strain 1; assay: microbe, parasite or virus in culture; parameters: inhibition: dose or concentration left out as unconfirmed; conditions: read-out: antiviral effect, Polio 1
[8] = test system: Ljungan virus strain 012; assay: CPE inhibition in mammalian cell culture, LV012; conditions: Parechovirus B, read-out: antiviral effect, LV012; for inhibition at 5 µM: Conc. 5 µM; for inhibition at 10 µM: Conc. 10 µM; for inhibition at 100 µM: Conc. 0.1 mM; for inhibition at 1 µM: Conc. 1 µM
[9] = test system: coxsackie B virus strain 3; assay: CPE inhibition in mammalian cell culture, Cox-B3; parameters: inhibition: dose or concentration left out as unconfirmed; conditions: for inhibition at 5000 µM / inhibition / inhibition at 1000 µM: read-out: antiviral effect, B3; for inhibition at 0.01 µM: read-out: % inh.
[10] = test system: Human parechovirus strain 1; assay: CPE inhibition in mammalian cell culture, HPeV-1; conditions: Parechovirus A, read-out: antiviral effect, HPeV-1; for inhibition at 5 µM: Conc. 5 µM; for inhibition at 10 µM: Conc. 10 µM; for inhibition at 100 µM: Conc. 0.1 mM
[11] = test system: encephalomyocarditis virus; assay: CPE inhibition in mammalian cell culture, EMCV; parameters: inhibition: dose or concentration left out as unconfirmed; conditions: Cardiovirus A, read-out: antiviral effect, EMCV; for inhibition: Conc.; for inhibition at 100 µM: Conc. 0.1 mM
[12] = test system: Ljungan virus strain 145; assay: CPE inhibition in mammalian cell culture, LV145; parameters: inhibition: dose or concentration left out as unconfirmed; conditions: Parechovirus B; for inhibition: Conc.; for inhibition / inhibition at 100 µM: read-out: antiviral effect, LV145; for inhibition at 100 µM: Conc. 0.1 mM
[13] = test system: Enterovirus strain 71; assay: CPE inhibition in mammalian cell culture, EV71; parameters: inhibition: dose or concentration left out as unconfirmed; conditions: for inhibition: Conc.; for inhibition / inhibition at 100 µM: read-out: antiviral effect, EV71; for inhibition at 100 µM: Conc. 0.1 mM
[14] = test system: Porcine Tescho virus; assay: microbe, parasite or virus in culture; parameters: dose or concentration left out as unconfirmed; conditions: Conc.; read-out: antiviral effect, PTV
[15] = test system: EV68; assay: CPE inhibition in mammalian cell culture, EV68; parameters: antiviral effect, EV68: unit of the concentration uncertain

COc1ccc(-c2c(C)nn3c(NCc4ccc(Cl)cc4)cc(C)nc23)cc1OC [Ex. 1, N-[(4-chlorophenyl)methyl]-3-(3,4-dimethoxyphenyl)-2,5-dimethyl-pyrazolo[1,5-a]pyrimidin-7-amine]
inhibition at 5000 µM [1]: 86%
inhibition at 5000 µM [2]: 60%
inhibition at 5000 µM [3]: 93%
inhibition at 5000 µM [4]: 90%
inhibition ([5]; Conc.): 90%
inhibition at 0.25 µM ([5]; read-out: % inh.): 75%
inhibition at 5 µM [6]: 100%
inhibition at 5000 µM [7]: 31%
inhibition at 5 µM [8]: 34%
inhibition at 5000 µM [9]: 95%
inhibition at 5 µM [10]: 14%

COc1ccc(CNc2cc(C)nc3c(-c4ccc(OC)c(OC)c4)c(C)nn23)cc1 [Ex. 2, 3-(3,4-dimethoxyphenyl)-N-[(4-methoxyphenyl)methyl]-2,5-dimethyl-pyrazolo[1,5-a]pyrimidin-7-amine]
inhibition at 5000 µM [1]: 86%
inhibition at 5000 µM [2]: 93%
inhibition at 5000 µM [3]: 91%
inhibition at 5000 µM [4]: 91%
inhibition ([5]; Conc.): 83%
inhibition at 5 µM [6]: 91%
inhibition at 0.25 µM ([6]; EV30, Conc. 0.25 μM): 85%
inhibition at 5000 µM [7]: 90%
inhibition at 5 µM [8]: 49%
inhibition at 5000 µM [9]: 97%
inhibition at 5 µM [10]: 0%

COc1ccc(-c2c(C)nn3c(NCc4ccc(C)cc4)cc(C)nc23)cc1OC [Ex. 6, 3-(3,4-dimethoxyphenyl)-2,5-dimethyl-N-(p-tolylmethyl)pyrazolo[1,5-a]pyrimidin-7-amine]
inhibition [11]: 0%
inhibition at 10000 µM [1]: 69%
inhibition [12]: 63%
inhibition at 5 µM ([12]; LV145, Conc. 5.0 μM): 56%
inhibition at 10000 µM [2]: 82%
inhibition at 10000 µM [3]: 35%
inhibition at 10000 µM [4]: 54%
inhibition at 10 µM [6]: 44%
inhibition at 10000 µM [7]: 19%
inhibition at 10 µM [8]: 28%
inhibition [13]: 37%
inhibition at 10 µM [10]: 60%
inhibition [14]: 62%

COc1ccc(-c2c(C)nn3c(NCC(C)c4ccccc4)cc(C)nc23)cc1OC (stereo not drawn) [Ex. 10, 3-(3,4-dimethoxyphenyl)-2,5-dimethyl-N-(2-phenylpropyl)pyrazolo[1,5-a]pyrimidin-7-amine]
inhibition [11]: 25%
inhibition at 10000 µM [1]: 94%
inhibition [12]: 41%
inhibition at 2.5 µM ([12]; LV145, Conc. 2.5 μM): 69%
inhibition at 10000 µM [2]: 97%
inhibition at 10000 µM [3]: 79%
inhibition at 10000 µM [4]: 92%
inhibition at 10 µM [6]: 88%
inhibition at 10 µM [8]: 0%
inhibition [13]: 58%
inhibition at 10 µM [10]: 3%
inhibition [14]: 43%

COc1ccc(-c2c(C)nn3c(NCc4ccncc4)cc(C)nc23)cc1OC [Ex. 75, 3-(3,4-dimethoxyphenyl)-2,5-dimethyl-N-(4-pyridylmethyl)pyrazolo[1,5-a]pyrimidin-7-amine]
inhibition at 100 µM [11]: 0%
inhibition [1]: 100%
inhibition at 100 µM [12]: 0%
inhibition [2]: 100%
inhibition [3]: 100%
inhibition [4]: 98%
inhibition [5]: 90%
inhibition at 100 µM [6]: 100%
inhibition [7]: 100%
inhibition at 100 µM [8]: 0%
inhibition at 100 µM [13]: 85%
inhibition at 0.01 µM [9]: 85%
inhibition [9]: 89%
inhibition at 100 µM [10]: 0%
antiviral effect, EV68 ([15]; Conc. 0.1 (unit uncertain)): 31%

COc1ccc(CNc2cc(C)nc3c(-c4ccc(OC)c(OC)c4)c(C)nn23)cn1 [Ex. 79, 3-(3,4-dimethoxyphenyl)-N-[(6-methoxy-3-pyridyl)methyl]-2,5-dimethyl-pyrazolo[1,5-a]pyrimidin-7-amine]
inhibition at 100 µM [11]: 0%
inhibition [1]: 78%
inhibition at 100 µM [12]: 0%
inhibition [2]: 84%
inhibition [3]: 88%
inhibition [4]: 98%
inhibition [5]: 0%
inhibition at 100 µM [6]: 10%
inhibition [7]: 79%
inhibition at 100 µM [8]: 0%
inhibition at 100 µM [13]: 88%
inhibition [9]: 87%
inhibition at 100 µM [10]: 0%
antiviral effect, EV68 ([15]; Conc. 0.1 (unit uncertain)): 46%
inhibition at 1 µM ([15]; EV68, Conc. 1 μM): 51%

COc1ccc(-c2c(C)nn3c(NCc4ccc(NS(C)(=O)=O)cc4)cc(C)nc23)cc1OC [Ex. 80, N-[4-[[[3-(3,4-dimethoxyphenyl)-2,5-dimethyl-pyrazolo[1,5-a]pyrimidin-7-yl]amino]methyl]phenyl]methanesulfonamide]
inhibition at 1000 µM [1]: 78%
inhibition at 1000 µM [2]: 96%
inhibition at 1000 µM [3]: 78%
inhibition at 1000 µM [4]: 97%
inhibition at 1 µM ([5]; read-out: % inh.): 93%
inhibition at 1 µM [6]: 90%
inhibition at 1000 µM [7]: 85%
inhibition at 1 µM [8]: 0%
inhibition at 1000 µM [9]: 78%
inhibition at 1 µM ([10]; Conc. 1 µM): 0%
antiviral effect, EV68 ([15]; Conc. 1 (unit uncertain)): 30%

COc1ccc(-c2c(C)nn3c(NCc4ccc(O)cc4)cc(C)nc23)cc1OC [Ex. 81, 4-[[[3-(3,4-dimethoxyphenyl)-2,5-dimethyl-pyrazolo[1,5-a]pyrimidin-7-yl]amino]methyl]phenol]
inhibition at 100 µM [11]: 0%
inhibition [1]: 77%
inhibition at 100 µM [12]: 0%
inhibition [2]: 88%
inhibition at 0.01 µM ([3]; read-out: % inh.): 76%
inhibition [3]: 85%
inhibition [4]: 81%
inhibition [5]: 62%
inhibition at 100 µM [6]: 97%
inhibition [7]: 89%
inhibition at 100 µM [8]: 0%
inhibition at 100 µM [13]: 86%
inhibition [9]: 87%
inhibition at 100 µM [10]: 0%
antiviral effect, EV68 ([15]; Conc. 0.1 (unit uncertain)): 29%

COc1ccc(-c2c(C)nn3c(NCc4cccc(S(C)(=O)=O)c4)cc(C)nc23)cc1OC [Ex. 82, 3-(3,4-dimethoxyphenyl)-2,5-dimethyl-N-[(3-methylsulfonylphenyl)methyl]pyrazolo[1,5-a]pyrimidin-7-amine]
inhibition at 100 µM [11]: 0%
inhibition [1]: 100%
inhibition at 100 µM [12]: 0%
inhibition [2]: 98%
inhibition [3]: 95%
inhibition [4]: 89%
inhibition [5]: 89%
inhibition at 100 µM [6]: 94%
inhibition [7]: 100%
inhibition at 100 µM [8]: 0%
inhibition at 0.01 µM [9]: 82%
inhibition [9]: 91%
antiviral effect, EV68 ([15]; Conc. 0.1 (unit uncertain)): 24%

COc1ccc(-c2cnn3c(NCc4ccncc4)cc(C)nc23)cc1OC [Ex. 100, 3-(3,4-dimethoxyphenyl)-5-methyl-N-(4-pyridylmethyl)pyrazolo[1,5-a]pyrimidin-7-amine]
inhibition at 100 µM [11]: 0%
inhibition at 100 µM [12]: 0%
inhibition [2]: 99%
inhibition [4]: 90%
inhibition [5]: 88%
inhibition at 100 µM [6]: 78%
inhibition at 0.1 µM ([6]; EV30, Conc. 0.1 μM): 78%
inhibition [7]: 83%
inhibition at 100 µM [8]: 0%
inhibition at 100 µM [13]: 81%

COc1ccc(-c2cnn3c(NCc4cccc(S(C)(=O)=O)c4)cc(C)nc23)cc1OC [Ex. 101, 3-(3,4-dimethoxyphenyl)-5-methyl-N-[(3-methylsulfonylphenyl)methyl]pyrazolo[1,5-a]pyrimidin-7-amine]
inhibition at 100 µM [11]: 0%
inhibition at 100 µM [12]: 0%
inhibition [2]: 99%
inhibition [4]: 29%
inhibition [5]: 44%
inhibition at 100 µM [6]: 89%
inhibition [7]: 100%
inhibition at 100 µM [8]: 0%
inhibition at 100 µM [13]: 99%
inhibition at 0.1 µM ([13]; EV71, Conc. 0.1 μM): 99%
inhibition [9]: 90%

COc1ccc(-c2c(C)nn3c(NCc4ccc(F)cc4)cc(C(C)C)nc23)cc1OC [Ex. 111, 3-(3,4-dimethoxyphenyl)-N-[(4-fluorophenyl)methyl]-5-isopropyl-2-methyl-pyrazolo[1,5-a]pyrimidin-7-amine]
inhibition at 1000 µM [1]: 98%
inhibition at 1000 µM [2]: 96%
inhibition at 0.1 µM ([3]; read-out: % inh.): 68%
inhibition at 1000 µM [3]: 97%
inhibition at 1000 µM [4]: 99%
inhibition at 1 µM [6]: 80%
inhibition at 1000 µM [7]: 100%
inhibition at 1 µM [8]: 0%
inhibition at 1000 µM [9]: 100%
antiviral effect, EV68 ([15]; Conc. 1 (unit uncertain)): 40%
